Where “and” joins values, the source holds several entries; their conditions need not be identical. Equal values may be shown once. Square brackets hold non-standard residues; d marks the D form. Peptide text beside a SMILES is read from it. Arg(Me) = CNC(=N)NCCC[C@H](N)C(=O)O; d4Pal = N[C@H](Cc1ccncc1)C(=O)O; azaGly = NNC(=O)O
Key:
Format in all cases: functional, Homo sapiens
Parameters in all cases: dose or concentration left out as unconfirmed
Colon cancer organoid [1] = test: (§1) Image-based profiling of donated chemical probes and chemogenomic kinase set in O21 CRC organoid. Image analysis is performed on the sum area metric, and the data were normalized to the DMSO control. After imaging the organoid viability is measured using the OneGloEX Luciferase Assay System. The normalized viability data and sum area are reported.
Colon cancer organoid [2] = test: as §1, with “O09” for “O21”
Colon cancer organoid [3] = test: as §1, with “O06” for “O21”

| SMILES | Cell Viability (Colon cancer organoid [1]; Replication number 1) | Cell Viability (Colon cancer organoid [1]; Replication number 2) | Cell Viability (Colon cancer organoid [2]; Replication number 1) | Cell Viability (Colon cancer organoid [2]; Replication number 2) | Cell Viability (Colon cancer organoid [3]; Replication number 1) | Cell Viability (Colon cancer organoid [3]; Replication number 2) |
| --- | --- | --- | --- | --- | --- | --- |
| CS(=O)(=O)N1CCN(Cc2cc3nc(-c4cccc5[nH]ncc45)nc(N4CCOCC4)c3s2)CC1 [PICTILISIB] | 58.3035% and 68.0139% | 64.7873% and 89.8165% | 49.7053% and 32.4139% | 55.1776% and 34.8237% | 32.227% and 73.4455% | 23.961% and 57.7892% |
| COc1cc(C(=O)N2CC[C@@H](O)[C@@H](N)C2)cc2nc(-c3cc4ccccc4n3CC3CC3)n(C)c12.Cl | 95.6097% and 101.11% | 84.8651% and 86.9928% | 108.535% and 117.543% | 77.7437% and 99.4932% | 141.855% and 120.564% | 139.679% and 135.263% |
| CCOc1ccn(-c2ccc(F)cc2)c(=O)c1C(=O)Nc1ccc(Oc2ccnc(N)c2Cl)c(F)c1 [BMS-777607] | 134.256% and 110.941% | 106.617% and 115.725% | 102.993% and 102.228% | 97.5395% and 82.0651% | 96.7201% and 108.61% | 116.766% and 115.578% |
| CCNC(=O)c1cc2c(N3CCOC[C@@H]3C)ccnc2n1C | 124.621% and 105.951% | 105.072% and 92.3469% | 131.24% and 98.4338% | 151.747% and 108.945% | 97.9107% and 98.1265% | 90.7853% and 98.7859% |
| Cc1noc([C@H]2C[C@@H](c3ccc(C(F)(F)F)cc3)CN(C(=O)N3CCS(=O)(=O)C3)C2)n1 [BAY-448] | 88.3285% and 80.3363% | 88.286% and 95.9184% | 144.748% and 117.786% | 135.729% and 111.574% | 117.281% and 106.792% | 86.8627% and 94.2849% |
| CC1=C(C(=O)Nc2cc3cn[nH]c3cc2F)C(c2ccc(C(F)(F)F)cc2)CC(=O)N1 (stereo not drawn) | 120.369% and 99.2335% | 116.368% and 107.089% | 137.27% and 97.7404% | 200.569% and 118.509% | 108.292% and 112.394% | 105.064% and 92.1337% |
| CNC(=N)NCCC[C@H](NC(=O)[C@H](CC(C)C)NC(=O)NNC(=O)[C@H](Cc1ccccc1)NC(=O)[C@H](CO)NC(=O)[C@H](CC(N)=O)NC(=O)[C@@H](Cc1ccncc1)NC(=O)[C@H](N)Cc1ccc(O)cc1)C(=O)N[C@@H](Cc1ccccc1)C(N)=O [KISS1-305] (H-[dY][d4Pal]NSF[azaGly]L[Arg(Me)]F-NH2) | 121.353% and 98.3829% | 105.015% and 111.735% | 111.929% and 98.6727% | 102.809% and 106.608% | 103.915% and 128.337% | 108.799% and 104.471% |
| CCC(=O)N1CCOc2c(cc(-c3ccc(OC)c(OC)c3)cc2OCC2CCCN(C)C2)C1 (stereo not drawn) | 115.467% and 112.867% | 97.0638% and 103.64% | 89.2152% and 99.2272% | 160.901% and 114.888% | 144.88% and 142.792% | 105.633% and 74.0839% |
| Cc1cn(-c2cc(NC(=O)c3ccc4c(c3)CN(c3cncnc3)C[C@@H]4C)cc(C(F)(F)F)c2)cn1 | 90.5152% and 91.8083% | 113.206% and 94.0752% | 138.868% and 108.886% | 120.836% and 109.134% | 59.0694% and 78.9076% | 95.3584% and 115.454% |
| CCCCN(CCCC)C(=O)CN1C[C@@H](c2cc(OC)c3c(c2)OCO3)[C@H](C(=O)O)[C@H]1CC(C)(C)CCC.Cl | 63.1584% and 74.5149% | 47.1745% and 81.1225% | 42.4098% and 26.0419% | 31.2719% and 16.5316% |  |  |
| CCc1cccc(CC)c1NC(=O)c1nn(C)c2c1CCc1cnc(Nc3ccc(C(=O)NC4CCN(C)CC4)cc3OC(F)(F)F)nc1-2 | 41.8512% and 75.8188% | 49.725% and 74.2713% | 78.2687% and 77.2947% | 115.279% and 90.9735% |  |  |
| CC(=O)NCC(=O)N1[C@@H]2CC[C@H]1c1ccc(Nc3ncc(C(F)(F)F)c(NC4CCC4)n3)cc12 [PF-03814735] | 48.6382% and 56.6718% | 62.4502% and 65.7393% |  | 33.7645% and 14.7244% |  |  |
| COc1c(OCCCN2CCOCC2)ccc2c1N=C(NC(=O)c1cnc(N)nc1)N1CCN=C21 [COPANLISIB] |  |  | 12.735% and 9.949% | 17.4919% and 14.9013% | 2.47% and 7.411% | 1.939% and 5.676% |
| N#CC1(c2ccccn2)CCN(Cc2cc(C(=O)O)c(=O)n3ccccc23)CC1 [MSD-M1PAM] | 89.7237% and 93.8523% | 106.363% and 84.1264% | 40.5981% and 75.2157% | 57.8261% and 79.5004% |  |  |
| COc1cc2ncn(-c3cc(OCc4ccccc4C(F)(F)F)c(C(N)=O)s3)c2cc1OC [GW843682X] |  | 21.0036% and 58.1504% | 19.8463% and 25.1831% | 19.142% and 23.8097% |  |  |
| CCCCNc1ncc(-c2ccc(CN3CCOCC3)cn2)c(N[C@H]2CC[C@H](O)CC2)n1 | 74.2042% and 87.3045% | 78.7125% and 74.949% | 13.1667% and 26.0723% | 15.6613% and 21.4116% |  |  |

| SMILES | Cell Viability (Colon cancer organoid [1]; Replication number 1) | Cell Viability (Colon cancer organoid [1]; Replication number 2) | Cell Viability (Colon cancer organoid [2]; Replication number 1) | Cell Viability (Colon cancer organoid [2]; Replication number 2) | Cell Viability (Colon cancer organoid [3]; Replication number 1) | Cell Viability (Colon cancer organoid [3]; Replication number 2) |
| --- | --- | --- | --- | --- | --- | --- |
| CC(C)[C@H](C(=O)Nc1ccc(C(=O)NO)cc1)c1ccccc1 [AR-42] | 145.989% and 67.015% | 137.871% and 83.2339% |  |  |  | 8.903% and 23.7546% |
| Cn1cc(-c2[nH]c3cc(NC(=O)[C@H](N)C4CCCCC4)cc4c3c2C=NNC4=O)cn1 |  |  | 70.4366% and 51.3636% | 57.165% and 41.3025% | 9.563% and 27.3752% |  |
| COc1cc(Nc2ccnc3ccc(Br)cc23)cc(OC)c1OC |  |  | 33.1055% and 56.4229% | 29.2651% and 46.0292% |  | 5.197% and 15.2001% |
| COc1ccc(Oc2cc(NCCC(F)(F)F)c3ncc(-c4ccc(C(=O)NC5CC5)c(C)c4)n3n2)c(F)c1F [BAY-1217389] | 50.4052% and 66.3415% | 55.0801% and 82.9075% | 16.1792% and 31.9152% | 23.535% and 27.535% |  |  |
| CC[C@@H]1C(=O)N(C)c2cnc(Nc3ccc(C(=O)NC4CCN(C)CC4)cc3OC)nc2N1C1CCCC1 [BI-2536] | 25.994% and 61.8815% | 31.9179% and 66.7866% | 16.4106% and 42.6367% | 20.1367% and 38.0631% |  |  |
| Cn1cc(CNCC2CCN(c3ncc(C(=O)NO)cn3)CC2)c2ccccc21 [QUISINOSTAT] |  |  | 11.6805% and 13.0062% | 13.8403% and 11.4602% |  |  |
| CCn1cc(-c2ccnc3[nH]c(-c4cccc(CN(C)C)c4)cc23)c(-c2ccc(NC(=O)N(C)C)cc2)n1 [GSK-1070916] | 76.6328% and 71.3589% | 81.5265% and 81.1803% | 22.2316% and 23.9614% | 25.9157% and 31.5843% |  |  |
| CN(C)CC#Cc1ccc(OCCCc2sc(N3CCc4cccc(C(=O)Nc5nc6ccccc6s5)c4C3)nc2C(=O)O)c(F)c1 [A-1155463] | 47.3935% and 102.037% | 50.6709% and 99.4222% |  |  | 0.4141% and 9.206% | 0.1987% and 7.04% |
| Cc1cc(C)cc(C(=O)NOCCCCCC(=O)NO)c1 | 190.206% and 106.401% | 186.718% and 91.8258% |  |  | 14.9423% and 44.698% | 14.9026% and 40.6267% |
| CCN1CCN(c2ccc(Nc3cc(N(C)C(=O)Nc4c(Cl)c(OC)cc(OC)c4Cl)ncn3)cc2)CC1 [INFIGRATINIB] | 70.5365% and 84.7387% | 76.3419% and 87.5135% | 23.1721% and 22.7147% | 19.8415% and 27.805% |  |  |
| C=CC(=O)N1CCC([C@@H]2CCNc3c(C(N)=O)c(-c4ccc(Oc5ccccc5)cc4)nn32)CC1 [ZANUBRUTINIB] | 87.382% and 84.1812% | 88.1261% and 101.331% | 34.0987% and 32.6632% | 34.2694% and 25.3214% |  |  |
| CCS(=O)(=O)Nc1ccc(Oc2ccc(F)cc2F)c(-c2cn(C)c(=O)c3[nH]ccc23)c1 [MIVEBRESIB] | 39.7622% and 88.1777% | 36.307% and 74.642% | 15.7549% and 20.0077% | 18.5163% and 23.3766% |  |  |
| CN1CCN(Cc2ccc(Nc3ncc(Cl)c(Nc4ccccc4S(=O)(=O)N(C)C)n3)cc2)CC1 [DUBERMATINIB] |  |  | 4.849% and 7.106% | 5.761% and 10.5011% | 1.098% and 2.141% | 1% and 3.825% |
| C[C@@H](Oc1cc(-n2cnc3ccc(CN4CCN(C)CC4)cc32)sc1C(N)=O)c1ccccc1C(F)(F)F [GSK-461364] | 31.4353% and 81.9512% |  | 31.4361% and 40.8914% | 27.3036% and 34.2838% |  |  |
| COc1cc(Nc2ncc3c(n2)-c2ccc(Cl)cc2C(c2c(F)cccc2OC)=NC3)ccc1C(=O)O [ALISERTIB] | 99.741% and 113.91% | 76.2077% and 81.6074% | 29.1632% and 19.7233% | 34.5212% and 21.703% |  |  |
| CCN(CCO)CCCOc1ccc2c(Nc3cc(CC(=O)Nc4cccc(F)c4)[nH]n3)ncnc2c1 [DEFOSBARASERTIB] | 70.1574% and 72.5399% | 94.5203% and 86.7079% | 28.5576% and 26.4792% | 25.188% and 21.7278% |  |  |

From ChEMBL document CHEMBL5724558, “Image-based profiling of drug vulnerabilities in CRC organoids” (2024)
